We go through 10 compounds from patent US10023592B2, “Bromodomain inhibitors” (Celgene Quanticel Research, Inc., priority 2013, dated 2018).

For one assay, the target named is BRD4(BD1) (Homo sapiens (Human), UniProt O60885). Nature of the assay: In vitro enzyme inhibition assay (BRD4 AlphaScreen). It is filed as binding. Put shortly: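 AlphaScreen proximity readout, using streptavidin donor and Ni-chelate acceptor beads at 5 μg/mL final, monitors biotin-H4 tetraacetylated peptide interaction with purified His-tagged BRD4.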
Background: Bead proximity is the source of the signal in Alpha formats.

Assay [1] deals with HL-60, human proleukemia cells. Description: Cell-MTS proliferation assay, HL-60. To be noted: 168 hr. The assay is classed as cell-based. In outline: (§1)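 Seven-day colorimetric MTS assay; compound at 11 concentrations from 100 μM down to 2.0 nM final, added a day after plating. IC50 from OD490 normalised to DMSO controls.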
In general terms: Tetrazolium assays rely on reduction of a dye to a coloured formazan, in cell work by metabolically active cells.

In assay [2] the test system is NCI-H460, human non-small cell lung cancer cells. Nature of the assay: Cell-MTS proliferation assay, NCI-H460. It is filed as cell-based. Conditions: 168 hr. Put shortly:
as §1

In assay [3] the test system is Raji, human Burkitts lymphoma cells. Description: Cell-MTS proliferation assay, Raji. It is filed as cell-based. Conditions: 168 hr. In outline: as §1
The mark [4] stands for this setting: in vitro enzyme inhibition assay.
Setting [5] is: Homo sapiens, Cell-MTS proliferation, HL-60 cells.
The mark [6] stands for this setting: Homo sapiens, Cell-MTS proliferation, NCI-H460 cells.
[7] abbreviates: Homo sapiens, Cell-MTS proliferation, Raji cells.
Where [8] appears, read: Homo sapiens, HL-60, Cell-MTS proliferation.
[9] abbreviates: Homo sapiens, NCI-H460, Cell-MTS proliferation.
Setting [10] is: Homo sapiens, Raji, Cell-MTS proliferation.

Bounds are passed on as bounds.

In general, IC50 refers to the concentration at which inhibition is half-maximal. Read a high IC50 as lower potency. Turning to `CCS(=O)(=O)c1ccc(Oc2ccc(F)cc2F)c(-c2cn(C)c(=O)c3cncn23)c1` [Example 376, 5-[2-(2,4-difluorophenoxy)-5-ethylsulfonylphenyl]-7-methylimidazo[1,5-a]pyrazin-8-one], the IC50 on BRD4(BD1) (setting [4]) was below 500 nM; in assay [1] (setting [5]), below 500 nM; in assay [2] (setting [6]), above 5000 nM; in assay [3] (setting [7]) it was 500 to 5000 nM.
For `CCS(=O)(=O)c1ccc(OCC2CC2)c(-c2cn(C)c(=O)cc2C)c1` [Example 466, 5-[2-(cyclopropylmethoxy)-5-ethylsulfonylphenyl]-1,4-dimethylpyridin-2-one], the IC50 is below 500 nM against BRD4(BD1) (setting [4]), below 500 nM in assay [1] (setting [5]), above 5000 nM in assay [2] (setting [6]) and below 500 nM in assay [3] (setting [7]).
As for `Cc1cc(-c2nc(NS(C)(=O)=O)ncc2Oc2ccc(F)cc2F)cn(C)c1=O` [Example 166, N-[5-(2,4-difluorophenoxy)-4-(1,5-dimethyl-6-oxopyridin-3-yl)pyrimidin-2-yl]methanesulfonamide], the IC50 is below 500 nM against BRD4(BD1) (setting [4]), below 500 nM in assay [1] (setting [8]), above 5000 nM in assay [2] (setting [9]) and below 500 nM in assay [3] (setting [10]).
On to `COCC1COc2c(cc(S(C)(=O)=O)cc2-c2cn(C)c(=O)c3ccccc23)O1` (stereo not shown) [Example 501, 4-[2-(methoxymethyl)-7-methylsulfonyl-2,3-dihydro-1,4-benzodioxin-5-yl]-2-methylisoquinolin-1-one], for which the half-maximal inhibitory concentration (IC50) against BRD4(BD1) (setting [4]) is below 500 nM; in assay [1] (setting [5]) it was 500 to 5000 nM; in assay [2] (setting [6]), above 5000 nM; in assay [3] (setting [7]), 500 to 5000 nM.
On to `CCS(=O)(=O)Cc1ccc(OCC(F)(F)F)c(-c2cn(C)c(=O)c3ccccc23)c1` [Example 487, 4-[5-(ethylsulfonylmethyl)-2-(2,2,2-trifluoroethoxy)phenyl]-2-methylisoquinolin-1-one], for which the IC50 against BRD4(BD1) (setting [4]) is below 500 nM; in assay [1] (setting [5]) it was below 500 nM; in assay [2] (setting [6]), above 5000 nM; in assay [3] (setting [7]), below 500 nM.
As to `Cn1cc(-c2cc(S(C)(=O)=O)ccc2O[C@H]2CC[C@@H](N)CC2)c2ccccc2c1=O` [Example 183, 4-[2-(cis-4-aminocyclohexyl)oxy-5-methylsulfonylphenyl]-2-methylisoquinolin-1-one], the IC50 on BRD4(BD1) (setting [4]) was below 500 nM; in assay [1] (setting [8]) it was 500 to 5000 nM; in assay [2] (setting [9]), above 5000 nM; in assay [3] (setting [10]) it was above 5000 nM.
Regarding “4-[5-(cyclopropylmethoxy)-2-methylsulfonylpyridin-4-yl]-7-fluoro-2-methylisoquinolin-1-one [Example 203]”, the 50% inhibitory concentration (IC50) against BRD4(BD1) (setting [4]) was below 500 nM; in assay [1] (Cell-MTS proliferation), below 500 nM; in assay [2] (Cell-MTS proliferation), above 5000 nM; in assay [3] (Cell-MTS proliferation) it was below 500 nM.
`CN(C)c1cc(-c2cc(NS(C)(=O)=O)ccc2Oc2ccc(F)cc2F)cn(C)c1=O` [Example 463, N-[4-(2,4-difluorophenoxy)-3-[5-(dimethylamino)-1-methyl-6-oxopyridin-3-yl]phenyl]methanesulfonamide]: the IC50 against BRD4(BD1) (setting [4]) was below 500 nM; in assay [1] (setting [5]), below 500 nM; in assay [2] (setting [6]) it was above 5000 nM; in assay [3] (setting [7]), below 500 nM.
As to `Cn1cc(-c2cc(OCc3ccccc3)cc(S(C)(=O)=O)c2)c2ccoc2c1=O` [Example 349, 6-methyl-4-(3-methylsulfonyl-5-phenylmethoxyphenyl)furo[2,3-c]pyridin-7-one], the IC50 is below 500 nM against BRD4(BD1) (setting [4]), below 500 nM in assay [1] (setting [8]), above 5000 nM in assay [2] (setting [9]) and below 500 nM in assay [3] (setting [10]).
With `Cn1cc(-c2cc(S(C)(=O)=O)ccc2Oc2ccc(F)cc2F)c2ccccc2c1=O` [Example 92, 4-[2-(2,4-difluorophenoxy)-5-methylsulfonylphenyl]-2-methylisoquinolin-1-one], the IC50 at BRD4(BD1) (class symbols A/B/C) is below 500 nM; in assay [1] (Homo sapiens, HL-60, Cell-MTS, class symbols A/B/C) it was below 500 nM; in assay [2] (Homo sapiens, NCI-H460, Cell-MTS, class symbols A/B/C), above 5000 nM; in assay [3] (Homo sapiens, Raji, Cell-MTS, class symbols A/B/C) it was below 500 nM.
